From patent US20200405868A1, “GEL-FORMING POLYPEPTIDES” (priority 2018, published 2020)
Entries after “also recorded” stand apart in the source; their conditions may differ. *1 amine or outer side, *2 acyl side, *3 side chain or, on linkers, in order; H or OH if unused. Where a SMILES comes first, the peptide text is derived from it. Where no end group is shown, it is not given here. [ ]: non-standard residue; d: D form. The star is where a group is joined. FITC = O=C1OC2(c3ccc(O)cc3Oc3cc(O)ccc32)c2ccc(NC(=S)*)cc21; K(Pal) = CCCCCCCCCCCCCCCC(=O)NCCCC[C@H](N[*:1])C(=O)[*:2]; d2Nal = N[C@H](Cc1ccc2ccccc2c1)C(=O)O

Experiment: Compound gel-forming ability in water (visual inspection, tube tapping assay, tilted tube assay);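 note: peptides mixed with de-ionized water at about 22-25 °C, judged after 20 min by eye plus tube tapping (10 taps, moves counted) and 90° tilt mobility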
Type: physicochemical
Settings: for gel formation at 6% w/w: 6% w/w in water; for gel formation at 11% w/w: 11% w/w in water; for Physical property at 11% w/w: 11% w/w in aqueous solution, room temperature; for gel formation in aqueous solution, 11% / gel formation in aqueous solution, 20% / gel formation in aqueous solution, 6%: Table 3; for gel formation in aqueous solution, 11% / propensity to form gels, wild-type counterparts, 11%: 11% w/w; for gel formation in aqueous solution, 20% / propensity to form gels, wild-type counterparts, 20%: 20% w/w; for propensity to form gels, wild-type counterparts, 6% / gel formation in aqueous solution, 6%: 6% w/w; for gel formation at the selected concentration: selected concentration (i.e., at 30%, 20%, 11%, or 6% w/w); for gel formation at 20% w/w: 20% w/w in water

Compound	gel formation at 11% w/w	Physical property at 11% w/w (Table 1)	gel formation in aqueous solution, 11%	propensity to form gels, wild-type counterparts, 6% (Table 5)	propensity to form gels, wild-type counterparts, 11% (Table 5)	other results
CC[C@H](C)[C@H](NC(=O)[C@@H]1CCCN1C(=O)CNC(=O)[C@H](Cc1ccccc1)NC(=O)[C@H](CC(N)=O)NC(=O)[C@H](CC(N)=O)NC(=O)[C@H](CO)NC(=O)[C@H](CO)NC(=O)[C@H](Cc1c[nH]cn1)NC(=O)[C@@H](NC(=O)[C@H](CC(C)C)NC(=O)[C@H](Cc1ccccc1)NC(=O)[C@H](CC(N)=O)NC(=O)[C@H](C)NC(=O)[C@H](CC(C)C)NC(=O)[C@H](CCCNC(=N)N)NC(=O)[C@H](CCC(N)=O)NC(=O)[C@@H](NC(=O)[C@H](C)NC(=O)[C@@H]1CSSC[C@H](NC(=O)[C@@H](N)CCCCN)C(=O)N[C@@H](CC(N)=O)C(=O)N[C@@H]([C@@H](C)O)C(=O)N[C@@H](C)C(=O)N[C@@H]([C@@H](C)O)C(=O)N1)[C@@H](C)O)C(C)C)C(=O)N[C@@H](CC(C)C)C(=O)N1CCC[C@H]1C(=O)N1CCC[C@H]1C(=O)N[C@H](C(=O)N[C@@H](CC(N)=O)C(=O)N[C@H](C(=O)NCC(=O)N[C@@H](CO)C(=O)N[C@@H](CC(N)=O)C(=O)N[C@H](C(=O)N[C@@H](Cc1ccc(O)cc1)C(N)=O)[C@@H](C)O)C(C)C)[C@@H](C)O [SEQ ID NO:4, reference compound]	semisolid gel	SS (SS for semisolid gel)	AS/IS (AS/IS for aqueous solution or insoluble)	AS/IS	SS (An ability to form semisolid gel is represented by an SS)	gel formation at 6% w/w: does not form gel; gel formation in aqueous solution, 20%: SS (SS for semisolid gel)
CC[C@H](C)[C@@H]1NC(=O)[C@H](Cc2ccc(O)cc2)NC(=O)[C@@H](N)CSSC[C@@H](C(=O)N2CCC[C@H]2C(=O)N[C@@H](CC(C)C)C(=O)NCC(N)=O)NC(=O)[C@H](CC(N)=O)NC(=O)[C@H](CCC(N)=O)NC1=O [SEQ ID NO:5, reference compound]	semisolid gel	SS (SS for semisolid gel)	SS (SS for semisolid gel)	AS/IS	SS (An ability to form semisolid gel is represented by an SS)	gel formation at 6% w/w: does not form liquid or semisolid gel; gel formation in aqueous solution, 6%: AS/IS (AS/IS for aqueous solution or insoluble); gel formation at the selected concentration: only form aqueous solution or are insoluble
C[C@H](NC(=O)[C@@H](Cc1ccc2ccccc2c1)NC(=O)[C@@H](C)N)C(=O)N[C@@H](Cc1c[nH]c2ccccc12)C(=O)N[C@H](Cc1ccccc1)C(=O)N[C@@H](CCCCN)C(N)=O [SEQ ID NO:8, (D-Ala)-(D-(β-naphthyl))-AAW-(D-Phe)-Lys-NH2, reference compound] (H-[dA][d2Nal]AW[dF]K-NH2)	form self-assembling gels; also recorded: semisolid gel	SS (SS for semisolid gel)	SS (SS for semisolid gel)	SS (An ability to form semisolid gel is represented by an SS)	SS (An ability to form semisolid gel is represented by an SS)	gel formation at 3% w/w (3% w/w in water): liquid gel; gel formation at 6% w/w: semisolid gel; gel formation in aqueous solution, 6%: SS (SS for semisolid gel)
CC[C@H](C)[C@H](N)C(=O)N[C@H]1CSSC[C@@H](C(=O)N[C@H](C(N)=O)[C@@H](C)O)NC(=O)[C@H](CCCN=C(N)N)NC(=O)[C@H](Cc2cnc[nH]2)NC(=O)[C@H](Cc2cnc[nH]2)NC(=O)CNC(=O)[C@H](Cc2c[nH]c3ccccc23)NC(=O)[C@H](CC(=O)O)NC(=O)[C@H](CCC(N)=O)NC(=O)[C@H](C(C)C)NC(=O)[C@H](C(C)C)NC1=O [SEQ ID NO:11, reference compound]	form self-assembling gels; also recorded: semisolid gel	SS (SS for semisolid gel)	SS (SS for semisolid gel)		SS (An ability to form semisolid gel is represented by an SS)	
NC(=O)CC[C@@H]1NC(=O)[C@H](Cc2ccccc2)NC(=O)[C@H](Cc2ccc(O)cc2)NC(=O)[C@@H](N)CSSC[C@@H](C(=O)N2CCC[C@H]2C(=O)N[C@@H](CCCN=C(N)N)C(=O)NCC(N)=O)NC(=O)[C@H](CC(N)=O)NC1=O [SEQ ID NO:17, reference compound]	does not form gel	AS/IS	AS/IS (AS/IS for aqueous solution or insoluble)		AS/IS	
(D-Nal)-(D-Cpa)-(D-Pal)-SY-(D-Cit)-LRP-(D-Ala)-NH2 [SEQ ID NO:27, reference compound]		AS/IS	AS/IS (AS/IS for aqueous solution or insoluble)		AS/IS	
(D-Phe)-QWAVGHL-(4-CI)Phe-NH2 [SEQ ID NO:61, reference compound]	form self-assembling gels	SS (SS for semisolid gel)	SS (SS for semisolid gel)	SS (An ability to form semisolid gel is represented by an SS)	SS (An ability to form semisolid gel is represented by an SS)	gel formation in aqueous solution, 6%: SS (SS for semisolid gel)
(D-Tyr)QWAV(β-Ala)HF(Nle)-NH2 [SEQ ID NO:20, reference compound]	does not form gel	AS/IS	AS/IS (AS/IS for aqueous solution or insoluble)	AS/IS	AS/IS	gel formation at 6% w/w: does not form gel; gel formation in aqueous solution, 6%: AS/IS (AS/IS for aqueous solution or insoluble)
(G1p)HWSY-(D-2Nal)-LRPG-NH2 [SEQ ID NO:15, reference compound]	liquid gel			AS/IS		gel formation in aqueous solution, 6%: AS/IS (AS/IS for aqueous solution or insoluble)
(G1p)RPRLSHKGP(Nle)PF-K(Pal)HSY-NH2 [SEQ ID NO:262]	liquid gel					gel formation at 20% w/w: liquid gel; propensity to form gels, chimeric or mutated polypeptides, 3% (Table 5, 3% w/w): AS/IS
(G1p)RPRLSHKGP(Nle)PF-miniPEG-K(Pal)VQKLSAPVDPSSPHSY-NH2 [SEQ ID NO:206]	liquid gel					gel formation at 20% w/w: liquid gel
(Glp)RPRLSHKGP(Nle)PF-NH2 (pyroGlu; Nle; C-terminal amide) [SEQ ID NO:18, reference compound]	does not form gel	AS/IS	AS/IS (AS/IS for aqueous solution or insoluble)	AS/IS	AS/IS	gel formation at 6% w/w: does not form gel; gel formation at 20% w/w: does not form gel; gel formation in aqueous solution, 6%: AS/IS (AS/IS for aqueous solution or insoluble); gel formation in aqueous solution, 20%: AS/IS (AS/IS for aqueous solution or insoluble); propensity to form gels, wild-type counterparts, 20% (Table 5): AS/IS; gel formation at the selected concentration: only form aqueous solution or are insoluble
(Lauric acid)-SSPHSY-NH2 [SEQ ID NO:122]						Physical property at 11% w/w (Table 2): SS (SS for semisolid gel)
(Myristic acid)-SSPHSY-NH2 [SEQ ID NO:123]						Physical property at 11% w/w (Table 2): SS (SS for semisolid gel)
Ac-EEMQRR-NH2 [SEQ ID NO:47, reference compound]		AS/IS	AS/IS (AS/IS for aqueous solution or insoluble)		AS/IS	
Ace-FKFEFKFE-NH2 [SEQ ID NO:141, reference compound]						Physical property at 11% w/w (Table 2): SS (SS for semisolid gel)
Ace-K(PAL)FGCRFGTCTVQKLAHQIYQFTDKDKDNVAPRSKISPQGY-NH2 [SEQ ID NO:1]	liquid gel			AS/IS		gel formation in aqueous solution, 6%: AS/IS (AS/IS for aqueous solution or insoluble); propensity to form gels, wild-type counterparts, 3% (Table 5, 3% w/w): AS/IS
Ace-KVQKLSAPVDPSSPHSY-NH2 [SEQ ID NO:115]						Physical property at 11% w/w (Table 2): AS/IS (AS/IS for aqueous solution or insoluble)
Ace-NFVPTNVGPFAF-NH2 (Ac-NFVPTNVGPFAF-NH2) [SEQ ID NO:134]						Physical property at 11% w/w (Table 2): AS/IS (AS/IS for aqueous solution or insoluble)
Ace-RADARADARADARADA-NH2 [SEQ ID NO:142, reference compound]						Physical property at 11% w/w (Table 2): SS (SS for semisolid gel)
Ace-TVQKLAHQIYQFTDKDKDNVAPRSKISPQGY-NH2 [SEQ ID NO:101]						Physical property at 11% w/w (Table 2): AS/IS (AS/IS for aqueous solution or insoluble)
CSNLSTCVLGKLSQELHKLQTYPRTNTGSGTP-NH2 [SEQ ID NO:28, reference compound]	does not form gel	AS/IS			AS/IS	gel formation in aqueous solution, 20%: AS/IS (AS/IS for aqueous solution or insoluble)
DRVYIHPF-NH2 [SEQ ID NO:16, reference compound]		AS/IS				
EAYKAAEKAYAAKEAAKEAAKAKAEKKAAYAKAKAAKYEKKAKKAAAEYKKK [SEQ ID NO:42, reference compound]	does not form gel	AS/IS	AS/IS (AS/IS for aqueous solution or insoluble)		AS/IS	gel formation at 20% w/w: does not form gel; gel formation in aqueous solution, 20%: AS/IS (AS/IS for aqueous solution or insoluble); propensity to form gels, wild-type counterparts, 20% (Table 5): AS/IS
FITC-K(Pal)SSPHSY-miniPEG-GRKKRRQRRRPQ ({FITC-K(Pal)-Ser-Ser-Pro-H2N-Ser-Tyr-miniPEG}-GRKKRRQRRRPQ) [SEQ ID NO:241]	liquid gel					
